# Measured values reported in patent publication US9221796B2, “Selective NR2B antagonists” (BRISTOL-MYERS SQUIBB COMPANY, priority 2014, dated 2015).
# Target: NR2B-subtype NMDA receptors (Rattus norvegicus (Rat), UniProt P35439+Q00960)
# Experiment: Radioligand binding assay (3H Ro 25-6981 competition, forebrain membranes)
# Conditions: 3H Ro 25-6981 (4 nM), listed as 44, E-1, read-out: NR2B Binding Ki
# Protocol: Radioligand Binding Assay. […] Buchy D; Klingelschmidt A; Messer J; Bleuel Z; Kemp J A; Richards J G. […] Thawed brains were homogenized using a Dounce homogenizer and centrifuged at 48000×g for 20 min. The pellet was resuspended in cold buffer and homogenized again using a Dounce homogenizer. […] After incubation for 1 hr at room temperature, the membrane bound radioligand was harvested on to GF/B filter plates (treated with 0.5% PEI for 1 hr at room temperature). The filter plates were dried at 50° C. for 20 mins, incubated with microscint 20 for 10 minutes and finally, the counts were read on TopCount (Perkin Elmer). […] CPM values were converted to % inhibition and the concentration response curves were plotted using custom made software. Each experiment was repeated at least twice to obtain the final binding Ki values for experimental compounds.
# NR2B-subtype NMDA receptors, sequence (Q00960 27-1482, other chains not shown): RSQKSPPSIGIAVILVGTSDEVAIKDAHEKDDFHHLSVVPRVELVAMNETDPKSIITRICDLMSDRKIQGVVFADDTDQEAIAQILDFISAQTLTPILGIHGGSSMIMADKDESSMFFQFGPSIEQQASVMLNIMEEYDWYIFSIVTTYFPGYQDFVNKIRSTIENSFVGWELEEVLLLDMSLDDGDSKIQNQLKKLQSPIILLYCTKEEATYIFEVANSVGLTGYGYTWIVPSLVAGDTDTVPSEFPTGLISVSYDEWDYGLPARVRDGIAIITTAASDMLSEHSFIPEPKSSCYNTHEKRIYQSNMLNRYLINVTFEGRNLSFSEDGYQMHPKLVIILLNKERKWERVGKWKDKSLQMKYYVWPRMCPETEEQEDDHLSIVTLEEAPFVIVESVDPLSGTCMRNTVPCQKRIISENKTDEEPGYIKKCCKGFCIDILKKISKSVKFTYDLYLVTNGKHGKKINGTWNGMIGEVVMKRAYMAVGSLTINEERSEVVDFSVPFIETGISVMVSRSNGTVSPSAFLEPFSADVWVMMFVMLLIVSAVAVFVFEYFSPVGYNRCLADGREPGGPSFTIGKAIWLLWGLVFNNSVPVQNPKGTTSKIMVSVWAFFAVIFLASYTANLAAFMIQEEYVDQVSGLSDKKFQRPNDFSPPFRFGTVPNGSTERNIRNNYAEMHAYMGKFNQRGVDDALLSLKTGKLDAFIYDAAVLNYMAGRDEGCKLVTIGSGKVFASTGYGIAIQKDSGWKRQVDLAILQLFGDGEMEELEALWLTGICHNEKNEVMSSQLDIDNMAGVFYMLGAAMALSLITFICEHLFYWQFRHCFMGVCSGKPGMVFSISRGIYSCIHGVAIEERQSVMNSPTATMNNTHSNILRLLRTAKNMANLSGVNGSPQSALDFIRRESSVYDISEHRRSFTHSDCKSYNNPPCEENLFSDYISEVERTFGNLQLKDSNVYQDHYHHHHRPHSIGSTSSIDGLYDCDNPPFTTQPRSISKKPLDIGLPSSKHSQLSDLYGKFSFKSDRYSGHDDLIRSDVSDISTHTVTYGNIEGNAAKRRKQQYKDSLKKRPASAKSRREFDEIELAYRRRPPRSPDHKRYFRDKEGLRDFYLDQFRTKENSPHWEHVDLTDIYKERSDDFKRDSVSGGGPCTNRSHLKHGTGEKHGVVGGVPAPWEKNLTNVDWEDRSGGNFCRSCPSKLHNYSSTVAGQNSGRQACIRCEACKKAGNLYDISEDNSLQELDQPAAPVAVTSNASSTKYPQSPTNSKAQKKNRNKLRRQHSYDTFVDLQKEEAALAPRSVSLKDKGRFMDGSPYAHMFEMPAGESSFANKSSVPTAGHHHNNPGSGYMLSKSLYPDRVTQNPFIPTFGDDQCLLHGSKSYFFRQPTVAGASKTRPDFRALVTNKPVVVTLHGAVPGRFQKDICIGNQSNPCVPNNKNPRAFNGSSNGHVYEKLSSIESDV
row,Ki,SMILES
1,650 nM,"O=C1C(N2CCC(c3ccc(O)cc3)C(O)C2)CCN1Cc1ccc(F)cc1 (single isomer, unassigned) [Example 44, E-1, 1-(4-Fluorobenzyl)-3-(cis-3-hydroxy-4-(4-hydroxyphenyl)piperidin-1-yl)pyrrolidin-2-one]"

# Same assay, conditions: 3H Ro 25-6981 (4 nM), listed as 44, E-2, read-out: NR2B Binding Ki
row,Ki,SMILES
1,5.7 nM,"O=C1C(N2CCC(c3ccc(O)cc3)C(O)C2)CCN1Cc1ccc(F)cc1 (single isomer, unassigned) [Example 44, E-2, 1-(4-Fluorobenzyl)-3-(cis-3-hydroxy-4-(4-hydroxyphenyl)piperidin-1-yl)pyrrolidin-2-one]"

# Same assay, conditions: 3H Ro 25-6981 (4 nM), read-out: NR2B Binding Ki
row,Ki,SMILES
1,1700 nM,"O=C1[C@@H](N2CC[C@H](c3ccc(O)cc3)[C@@H](F)C2)CCN1Cc1ccc(F)cc1 [Example 48, P-2]"
2,13 nM,"O=C1[C@@H](N2CCC(c3ccc(O)cc3)C(F)(F)C2)CCN1c1ccc(OC(F)F)c(Cl)c1 (stereo partly drawn) [Example 101, P-1, (3S)-1-(3-Chloro-4-(difluoromethoxy)phenyl)-3-(3,3-difluoro-4-(4-hydroxyphenyl)-piperidin-1-yl)pyrrolidin-2-one]"
3,1400 nM,"O=C1C(N2CCC(c3ccc(O)cc3)C(O)C2)CCN1Cc1ccc(F)cc1 (single isomer, unassigned) [Example 9b, 1-(4-Fluorobenzyl)-3-(3-hydroxy-4-(4-hydroxyphenyl)-piperidin-1-yl)pyrrolidin-2-one]"
4,470 nM,"Cc1ccc(CN2CC[C@H](N3CC[C@H](c4ccc(O)cc4)[C@@H](F)C3)C2=O)cc1F [Example 47, P-2, (S)-3-((3R,4R)-3-fluoro-4-(4-hydroxyphenyl)piperidin-1-yl)-1-(3-fluoro-4-methylbenzyl)pyrrolidin-2-one]"
5,33 nM,"O=C1C(N2CCN(c3ccc(O)cc3)CC2)CCN1Cc1ccc(F)cc1 (stereo not shown) [Example 113, 1-(4-fluorobenzyl)-3-(4-(4-hydroxyphenyl)piperazin-1-yl)pyrrolidin-2-one]"
6,2.5 nM,"Cc1ccc(CN2CC[C@@H](N3CC[C@H](c4ccc(O)c(F)c4)[C@@H](F)C3)C2=O)cc1F [Example 45, P-4, (R)-3-((3R,4R)-3-fluoro-4-(3-fluoro-4-hydroxyphenyl)piperidin-1-yl)-1-(3-fluoro-4-methylbenzyl)pyrrolidin-2-one]"
7,23 nM,"O=C1C(N2CC[C@H](c3ccc(O)cc3)[C@@H](F)C2)CCN1Cc1ccc(F)c(F)c1 (stereo partly drawn) [Example 85, 1-(3,4-Difluorobenzyl)-3-((3R,4R)-3-fluoro-4-(4-hydroxyphenyl)-piperidin-1-yl)pyrrolidin-2-one]"
8,170 nM,"O=C1[C@@H](N2CCC(c3ccc(O)cc3)CC2)CCN1Cc1ccc(Cl)cc1 [Example 18a, (S)-1-(4-Chlorobenzyl)-3-(4-(4-hydroxyphenyl)piperidin-1-yl)pyrrolidin-2-one]"
9,5.8 nM,"O=C1C(N2CCC(c3ccc(O)cc3)C(F)(F)C2)CCN1Cc1ccc(C(F)(F)F)cc1 (single isomer, unassigned) [Example 53, P-2, 3-(3,3-Difluoro-4-(4-hydroxyphenyl)piperidin-1-yl)-1-(4-(trifluoromethyl)-benzyl)pyrrolidin-2-one]"
10,67 nM,"Cc1cccc(CN2CCC(N3CCC(c4ccc(O)cc4)C(F)(F)C3)C2=O)c1 (stereo not shown) [Example 93, 3-(3,3-Difluoro-4-(4-hydroxyphenyl)piperidin-1-yl)-1-(3-methylbenzyl)pyrrolidin-2-one]"
11,≥ 5000 nM,"C[C@@H](c1ccc(F)cc1)N1CC[C@H](N2CC[C@@H](c3ccc(O)cc3)[C@H](F)C2)C1=O [Example 50, P-3, (S)-3-((3S,4S)-3-Fluoro-4-(4-hydroxyphenyl)piperidin-1-yl)-1-((S)-1-(4-fluorophenyl)ethyl)pyrrolidin-2-one]"
12,230 nM,"O=C1C(N2CCC(c3ccc(O)cc3)C(F)(F)C2)CCN1Cc1ccc(Cl)c(Cl)c1 (stereo not shown) [Example 98, 1-(3,4-Dichlorobenzyl)-3-(3,3-difluoro-4-(4-hydroxyphenyl)piperidin-1-yl)pyrrolidin-2-one]"
13,3.4 nM,"Cc1ccc(CN2CC[C@@H](N3CC[C@H](c4ccc(O)cc4)[C@@H](F)C3)C2=O)cc1F [Example 47, P-4, (R)-3-((3R,4R)-3-fluoro-4-(4-hydroxyphenyl)piperidin-1-yl)-1-(3-fluoro-4-methylbenzyl)pyrrolidin-2-one]"
14,41 nM,"O=C1[C@@H](N2CCC(c3ccc(O)cc3)CC2)CCN1Cc1ccccc1 [Example 13a, (S)-1-Benzyl-3-(4-(4-hydroxyphenyl)piperidin-1-yl)pyrrolidin-2-one]"
15,180 nM,"O=C1C(N2CCC(c3ccc(O)cc3)C(O)C2)CCN1Cc1ccc(F)cc1 (single isomer, unassigned) [Example 9a, 1-(4-Fluorobenzyl)-3-(3-hydroxy-4-(4-hydroxyphenyl)piperidin-1-yl)pyrrolidin-2-one]"
16,37 nM,"Cc1ccc(CN2CC[C@@H](N3CC(c4ccc(O)cc4)C3)C2=O)cc1F [Example 21a, (R)-1-(3-Fluoro-4-methylbenzyl)-3-(3-(4-hydroxyphenyl)azetidin-1-yl)pyrrolidin-2-one]"
17,76 nM,"O=C1C(N2CCC(c3ccc(O)cc3)C(F)(F)C2)CCN1Cc1ccccc1 (single isomer, unassigned) [Example 91, P-1, 1-Benzyl-3-(3,3-difluoro-4-(4-hydroxyphenyl)piperidin-1-yl)pyrrolidin-2-one]"
18,200 nM,"O=C1C(N2CC[C@H](c3ccc(O)cc3)[C@@H](F)C2)CCN1Cc1ccc(F)c(Cl)c1 (stereo partly drawn) [Example 89, 1-(3-Chloro-4-fluorobenzyl)-3-((3R,4R)-3-fluoro-4-(4-hydroxyphenyl)piperidin-1-yl)pyrrolidin-2-one]"
19,44 nM,"C[C@@H](c1ccccc1)N1CC[C@@H](N2CCC(c3ccc(O)cc3)CC2)C1=O [Example 33b, (R)-3-(4-(4-Hydroxyphenyl)piperidin-1-yl)-1-((S)-1-phenylethyl)pyrrolidin-2-one]"
20,13 nM,"O=C1[C@H](N2CC[C@H](c3ccc(O)cc3)[C@@H](F)C2)CCN1Cc1ccc(F)cc1 [Example 48, P-4]"
21,490 nM,"O=C1[C@@H](N2CC[C@@H](c3ccc(O)cc3)[C@H](F)C2)CCN1Cc1ccc(Cl)cc1 [Example 64, (S)-1-(4-Chlorobenzyl)-3-((3S,4S)-3-fluoro-4-(4-hydroxyphenyl)piperidin-1-yl)pyrrolidin-2-one]"
22,≥ 5000 nM,"C[C@@H](c1ccc(F)cc1)N1CC[C@H](N2CC[C@H](c3ccc(O)cc3)[C@@H](F)C2)C1=O [Example 50, P-1, (S)-3-((3R,4R)-3-Fluoro-4-(4-hydroxyphenyl)piperidin-1-yl)-1-((S)-1-(4-fluorophenyl)-ethyl)pyrrolidin-2-one]"
23,950 nM,"C[C@@H](c1ccccc1)N1CCC(N2CC[C@H](c3ccc(O)cc3)[C@@H](F)C2)C1=O (stereo partly drawn) [Example 84, 3-((3R,4R)-3-Fluoro-4-(4-hydroxyphenyl)piperidin-1-yl)-1-((S)-1-phenylethyl)pyrrolidin-2-one]"
24,21 nM,"O=C1C(N2CCCC(c3ccc(O)cc3)CC2)CCN1Cc1ccccc1 (stereo not shown) [Example 37, 1-Benzyl-3-(4-(4-hydroxyphenyl)azepan-1-yl)pyrrolidin-2-one]"
25,990 nM,"O=C1[C@@H](N2CCC(c3ccc(O)cc3)C(F)(F)C2)CCN1Cc1ccc(Cl)cc1 (stereo partly drawn) [Example 106, P-1, (3S)-1-(4-Chlorobenzyl)-3-(3,3-difluoro-4-(4-hydroxyphenyl)piperidin-1-yl)pyrrolidin-2-one]"
26,81 nM,"Cc1ccccc1CN1CCC(N2CCC(c3ccc(O)cc3)C(F)(F)C2)C1=O (stereo not shown) [Example 103, 3-(3,3-Difluoro-4-(4-hydroxyphenyl)piperidin-1-yl)-1-(2-methylbenzyl)pyrrolidin-2-one]"
